Reference: ChEMBL document CHEMBL1158393, “Synthesis, characterization and in vitro antiproliferative activities of new 13-cis-retinoyl ferrocene derivatives” (Eur J Med Chem, 2009)

Legend:
Type in all cases: functional, cell-based
[1] = Cytotoxicity against human Bel7404 cells after 24 hrs by MTT assay; conditions: BEL-7404, 24 h
[2] = test system: A549; test: Cytotoxicity against human A549 cells after 24 hrs by MTT assay; conditions: A549, 24 h
[3] = Cytotoxicity against human Tca cells after 24 hrs by MTT assay

Q: With `CC1=C(/C=C/C(C)=C/C=C/C(C)=C\C(=O)O)C(C)(C)CCC1` [ISOTRETINOIN] as the molecule, how does the IC50 [1] read?
A: Its IC50 is 42.6 µM.

Q: What about the IC50 [2] of the same molecule?
A: The IC50 was 35.8 µM.

Q: What about the IC50 [3] of the same molecule?
A: Its IC50 is 39.7 µM.
